Common to all, as to set-up: key: “+” indicates that the compound exibits inhibitory activity; “−” indicates that low or no inhibitory activity was observed
Experiment [1] has as its system HeLa cells. Nature of the experiment: Non-photographic proliferation analysis (Promega Cell titer Aqueous), HeLa. The following applies: 6 concentrations tested. It is filed as cell-based. The method, boiled down: (§1)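 HeLa, A549 and HCT116 cells, 2,000 per well in RPMI with 5% FBS, were given compounds 24 h after plating as 6.3-fold duplicate dilutions from 10 mM stock, diluted 500-fold into the wells. After 48 h at 37° C, 5% CO2, Cell titer Aqueous reagent was added for 45 min and absorbance read at 490 nm.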

Experiment [2] has as its system A549 cells. The experiment can be described thus: Cell proliferation assay, photographic image analysis of proliferation, apoptosis and death (PAD assay), A549. It counts as cell-based. The settings on record: 6 concentrations tested. In outline: (§2)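 Cells grown in RPMI with 5% FBS (2,000/well) and dosed 24 h after plating with 6.3-fold dilutions in duplicate (master plate 500× final, top 10 mM stock). After 48 h at 37 °C, cells formamide-fixed and DAPI-stained. Image analysis counted live, apoptotic and dead cells.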

For experiment [3], the system named is HCT116 cells. The experiment can be described thus: Cell proliferation assay, photographic image analysis of proliferation, apoptosis and death (PAD assay), HCT116. It is filed as cell-based. The settings on record: 6 concentrations tested. The method, boiled down: as §2
Experiment [4] concerns HeLa cells. Nature of the experiment: Cell proliferation assay, photographic image analysis of proliferation, apoptosis and death (PAD assay), HeLa. The following applies: 6 concentrations tested. It is filed as cell-based. In outline:
as §2

For experiment [5], the system named is A549 cells. The experiment can be described thus: Non-photographic proliferation analysis (Promega Cell titer Aqueous), A549. It is filed as cell-based. The settings on record: 6 concentrations tested. In outline:
as §1

The target in another experiment is MDM2 / p53 substrate (Homo sapiens, UniProt Q00987). Nature of the experiment: Plate-based MDM2 substrate ligation assay (MDM2-P53-FLAG). It is filed as biochemical. The settings on record: 8 concentrations tested. An excerpt:
This assay was preformed essentially as described in WO 03/076899 (page 77, line 5 to page 80, line 13), hereby incorporated by reference in its entirety.

The target of the next experiment is E3 MDM2 (Homo sapiens, UniProt Q00987). Nature of the experiment: Plate-based autoubiquitination of the E3 MDM2 (MDM2-FLAG). The following applies: 8 concentrations tested. It counts as biochemical. The procedure: E3 (His-APC11/APC2-“APC”) auto-ubiquitination was measured as described in U.S. patent application Ser. No. 09/826,312 (Publication No. US-2002-0042083-A1), which is incorporated herein in its entirety. Details of the protocol are described below. Activity in the presence of the compound was determined relative to a parallel control in which only DMSO was added. Values of the IC50 were typically determined using 6 or 8 different concentrations of the compound, although as few as 2 concentrations may be used to approximate the IC50 value.
E3 MDM2, sequence (Q00987 whole entry): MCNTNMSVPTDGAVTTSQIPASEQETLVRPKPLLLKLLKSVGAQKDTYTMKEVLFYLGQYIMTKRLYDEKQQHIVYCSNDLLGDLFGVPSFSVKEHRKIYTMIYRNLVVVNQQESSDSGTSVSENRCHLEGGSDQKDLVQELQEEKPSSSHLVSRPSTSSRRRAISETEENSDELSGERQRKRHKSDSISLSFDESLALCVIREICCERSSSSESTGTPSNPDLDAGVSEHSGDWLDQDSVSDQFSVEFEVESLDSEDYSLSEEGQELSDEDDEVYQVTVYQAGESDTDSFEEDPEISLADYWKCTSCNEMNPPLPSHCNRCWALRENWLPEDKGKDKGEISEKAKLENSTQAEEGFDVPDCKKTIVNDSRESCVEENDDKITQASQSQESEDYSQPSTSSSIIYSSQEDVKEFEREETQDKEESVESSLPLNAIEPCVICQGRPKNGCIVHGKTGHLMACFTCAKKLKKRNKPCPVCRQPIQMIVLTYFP
Nickel-coated 96-well plates (Pierce 15242) were blocked for 1 hour with 100 μl of blocking buffer at room temperature. The plates were washed 4 times with 225 μl of 1×PBS and 80 μl of the reaction buffer were added that contained 100 ng/well of Flag-ubiquitin. To this, 10 μl of the test compound diluted in DMSO were added. After the test compound was added, 10 μl of E1 (human), E2 (Ubch5c), and APC in Protein Buffer was added to obtain a final concentration of 5 ng/well of E1, 20 ng/well of E2 and 100 ng/well of APC. The plate were shaken for 10 minutes and incubated at room temperature for 1 hour. After incubation, the plates were washed 4 times with 225 μl of 1×PBS and 100 μl/well of Antibody Mix were added to each well. The plates were incubate at room temperature for another hour after which they were washed 4 times with 225 μl of 1×PBS and 100 μl/well of Lumino substrate were added to each well. The luminescence was measured by using a BMG luminescence microplate reader.
To prepare the Blocking Buffer (1 liter; 1% Casein in 1×PBS), 10 grams of Casein (Hammersten Grade Casein from Gallard-Schlesinger Inc. #440203) were placed into 1 liter of 1×PBS, stirred on a hot plate and kept between 50-60° C. for an hour. The buffer was allowed to cool to room temperature and then filtered using a Buchner Funnel (Buchner filter funnel 83 mm 30310-109) and Whatman filter paper (Whatman Grade No. 1 Filter paper 28450-070). It was stored at 4° C. until used.
The reaction buffer consisted of 62.5 mM Tris pH 7.6 (Trizma Base—Sigma T-8524), 3 mM MgCl2 (Magnesium Chloride—Sigma M-2393), 1 mM DTT (Sigma D-9779), 2.5 mM ATP (Roche Boehringer Mann Corp. 635-316), 100 ng/well of Flag-ubiquitin, 0.1% BSA (Sigma A-7906), and 0.05% Tween-20 (Sigma P-7949).
The Protein Buffer consisted of 20 mM Tris pH 7.6, 10% glycerol (Sigma G-5516) and 1 mM DTT.
The antibody mix consisted of 0.25% BSA (Sigma A-7906) in 1×PBS, 1/50,000 anti-Flag (Sigma F-3165), 1/100,000 of anti-Mouse IgG-HRP (Jackson Immunoresearch #115-035-146).
The substrate mix consisted of SuperSignal Substrate from Pierce (catalog number 37070ZZ) and was prepared by mixing 100 ml of the peroxide solution, 100 ml of the enhancer solution and 100 ml of Milli-Q® water.
In similar manner, autoubiquitination of the E3 MDM2 was determined (MDM2-FLAG). Further instruction in such assays can be found in U.S. patent application Ser. No. 10/108,767 (Publication No. US-2003-0104474 A1), which is incorporated herein in its entirety.

Experiment [6] has as its target E3 (His-APC11/APC2-"APC") (Homo sapiens, UniProt Q9NYG5+Q9UJX6). Nature of the experiment: Plate-based E3 ligase assay (APC FLAG), auto-ubiquitination. It is filed as biochemical. The following applies: 8 concentrations tested. The method, boiled down: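 His-APC11/APC2 auto-ubiquitination was run in casein-blocked nickel plates for 1 h at room temperature, with E1 at 5 ng/well, UbcH5c at 20 ng/well and APC at 100 ng/well. Buffer was 62.5 mM Tris pH 7.6, 3 mM MgCl2, 1 mM DTT, 2.5 mM ATP and Flag-ubiquitin at 100 ng/well. Detection used anti-Flag/HRP chemiluminescence, and IC50 was typically from 6 or 8 concentrations versus a DMSO control.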

For experiment [7], the system named is HCT116 cells. The experiment can be described thus: Non-photographic proliferation analysis (Promega Cell titer Aqueous), HCT116. The settings on record: 6 concentrations tested. It counts as cell-based. The procedure:
A549 (ATCC# CCL-185), HeLa (ATCC# CCL-2), HCT116 (ATCC# CCL-247), and H1299 (ATCC# CRL-5803) cells were maintained in T175 flasks following the ATCC recommended media and handling procedures. Flasks reaching approximately 70% confluency were trypsinized and resuspended in RPMI media (Cell-Gro catalog number 10-040-CM) modified to contain 5% FBS, 100 ug/mlPen/Strep (Cell-Gro catalog number 30-002-CL), and 0.3 mg/ml L-Glutamine (Cell-Gro catalog number 25-003-CL). A 20,000 cells/ml solution was made for plating. Cells were plated in black Packard 96 well plates by placing 100 μl per well (2,000 cells per well).
Compounds and additional media were added 24 hours after cell plating. A compound master plate was created with concentrations 500 times greater than the final concentration added to the cells. All compound testing was done in duplicate using 6.3 fold dilutions starting with 10 mM. All outside wells (and 4 internal wells) were DMSO controls. Taxol and at least one additional control were run on all plates. Three microliters of the compound master plate were added to deep well blocks containing 750 μl of RPMI media. One hundred microliters were transferred from the compound/media deep well blocks to the plated cells resulting in a 500 fold dilution of the compounds. Cells were grown at 37° C., 5% CO2 for 48 hours.
Some cell plates were treated with Promega Cell titer Aqueous 1 kit (promega—VWR catalog number G3580). In this case, 48 hours after the test compound were added, 100 μl of media were removed and 20 μl of cell titer reagent were added to all wells. Plates were incubated at 37° C. for 45 minutes prior to absorbance reads on the Wallac plate reader at 490 nm for 0.1 sec/well.

MDM2 / p53 substrate, sequence (Q00987 whole entry): as above
E3 (His-APC11/APC2-"APC"), sequence (Q9NYG5 whole entry): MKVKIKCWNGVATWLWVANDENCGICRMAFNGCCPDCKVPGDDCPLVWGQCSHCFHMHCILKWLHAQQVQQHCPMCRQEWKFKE
E3 (His-APC11/APC2-"APC"), sequence (Q9UJX6 whole entry): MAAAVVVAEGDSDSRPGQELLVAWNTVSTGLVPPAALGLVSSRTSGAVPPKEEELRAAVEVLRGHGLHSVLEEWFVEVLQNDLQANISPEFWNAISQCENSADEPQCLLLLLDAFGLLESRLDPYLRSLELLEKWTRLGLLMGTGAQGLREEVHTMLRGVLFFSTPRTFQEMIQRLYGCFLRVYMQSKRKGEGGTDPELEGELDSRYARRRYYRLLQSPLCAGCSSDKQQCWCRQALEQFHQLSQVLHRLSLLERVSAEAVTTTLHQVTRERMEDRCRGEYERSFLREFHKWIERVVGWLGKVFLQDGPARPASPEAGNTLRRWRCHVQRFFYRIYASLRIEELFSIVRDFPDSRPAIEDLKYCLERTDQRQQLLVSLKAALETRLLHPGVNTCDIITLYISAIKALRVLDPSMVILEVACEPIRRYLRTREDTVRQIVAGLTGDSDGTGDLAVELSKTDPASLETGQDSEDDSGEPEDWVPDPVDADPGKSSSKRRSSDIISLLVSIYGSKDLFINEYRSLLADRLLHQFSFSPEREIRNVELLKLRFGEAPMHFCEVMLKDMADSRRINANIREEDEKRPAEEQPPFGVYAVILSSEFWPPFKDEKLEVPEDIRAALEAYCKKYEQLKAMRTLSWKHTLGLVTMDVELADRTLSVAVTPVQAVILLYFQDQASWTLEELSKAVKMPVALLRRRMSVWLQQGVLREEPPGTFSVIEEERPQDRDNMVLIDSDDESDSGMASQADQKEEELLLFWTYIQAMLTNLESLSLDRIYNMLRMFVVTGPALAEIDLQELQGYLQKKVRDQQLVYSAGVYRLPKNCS

For `O=[N+]([O-])c1ccc(Oc2c(Cl)cc(S(=O)(=O)Nc3cc(Cl)ccc3Cl)cc2Cl)c(Cl)c1` [Compound 203, 3,5-dichloro-4-(2-chloro-4-nitrophenoxy)-N-(2,5-dichlorophenyl)benzene sulfonamide], the “Cell Titer-Aqueous, HELA 6 pt” value in the experiment on HeLa cells [1] is reported as “+”. Further, the “PAD Assay, A549 6 pt” value in the experiment on A549 cells [2] is listed as “+”. Further, in the experiment with HCT116 cells [3], the “PAD Assay, HCT116 6 pt” value is reported as “+”. In the experiment with HeLa cells [4], the “PAD Assay, HELA 6 pt” value is “+”. Moreover, the “Cell Titer-Aqueous, A549 6 pt” value in the experiment with A549 cells [5] is “+”. For the same compound, at MDM2 / p53 substrate, the “MDM2-P53 Flag 8 pt” value is “+”. In addition, the “MDM2-Auto Flag 8 pt” value on E3 MDM2 is given as “+”. In addition, in experiment [6], the “APC Flag 8 pt” value is recorded as “+”.
As for `O=[N+]([O-])c1ccc(Oc2c(Cl)cc(S(=O)(=O)Nc3ccc(Cl)cc3[N+](=O)[O-])cc2Cl)c(Cl)c1` [Compound 215, 3,5-dichloro-4-(2-chloro-4-nitrophenoxy)-N-(4-chloro-2-nitrophenyl)benzene sulfonamide], in the experiment on HeLa cells [1], the “Cell Titer-Aqueous, HELA 6 pt” value was “+”. Moreover, the “PAD Assay, A549 6 pt” value in the experiment on A549 cells [2] was “+”. Moreover, the “PAD Assay, HCT116 6 pt” value in the experiment with HCT116 cells [3] is given as “+”. Besides, in the experiment on HeLa cells [4], the “PAD Assay, HELA 6 pt” value is listed as “+”. Further, the “Cell Titer-Aqueous, A549 6 pt” value with A549 cells [5] was “+”. In addition, the “MDM2-P53 Flag 8 pt” value at MDM2 / p53 substrate is given as “+”. Also, the “MDM2-Auto Flag 8 pt” value on E3 MDM2 is recorded as “+”. Further, the “APC Flag 8 pt” value in experiment [6] is listed as “+”.
`O=[N+]([O-])c1ccc(Oc2c(Cl)cc(S(=O)(=O)Nc3cc(Br)cc(Br)n3)cc2Cl)c(Cl)c1` [Compound 218]: the “Cell Titer-Aqueous, HELA 6 pt” value in the experiment with HeLa cells [1] was “+”. For the same compound, in the experiment on A549 cells [2], the “PAD Assay, A549 6 pt” value is listed as “−”. The “PAD Assay, HCT116 6 pt” value in the experiment with HCT116 cells [3] was “−”. The “PAD Assay, HELA 6 pt” value in the experiment with HeLa cells [4] is “+”. The “Cell Titer-Aqueous, A549 6 pt” value in the experiment on A549 cells [5] was “+”. Further, on MDM2 / p53 substrate, the “MDM2-P53 Flag 8 pt” value is recorded as “+”. In addition, on E3 MDM2, the “MDM2-Auto Flag 8 pt” value was “+”. Also, the “APC Flag 8 pt” value in experiment [6] is “+”.
In the case of `O=[N+]([O-])c1ccc(Oc2c(Cl)cc(S(=O)(=O)Nc3cc([N+](=O)[O-])ccc3F)cc2Cl)c(Cl)c1` [Compound 220, 3,5-dichloro-4-(2-chloro-4-nitrophenoxy)-N-(2-fluoro-5-nitrophenyl)benzene sulfonamide], the “Cell Titer-Aqueous, HELA 6 pt” value in the experiment on HeLa cells [1] is “+”. In the experiment on A549 cells [2], the “PAD Assay, A549 6 pt” value is on record as “+”. Besides, the “PAD Assay, HCT116 6 pt” value with HCT116 cells [3] is “+”. Moreover, in the experiment on HeLa cells [4], the “PAD Assay, HELA 6 pt” value was “+”. For the same compound, in the experiment with A549 cells [5], the “Cell Titer-Aqueous, A549 6 pt” value was “+”. Also, on MDM2 / p53 substrate, the “MDM2-P53 Flag 8 pt” value was “−”. Besides, on E3 MDM2, the “MDM2-Auto Flag 8 pt” value is “+”. Besides, in experiment [6], the “APC Flag 8 pt” value was “+”.
`O=[N+]([O-])c1ccc(Oc2c(Cl)cc(S(=O)(=O)/N=C(\NO)Nc3ccc(Cl)cc3)cc2Cl)c(Cl)c1` [Example 58, 3,5-dichloro-4-(2-chloro-4-nitrophenoxy)-N-[(1Z)-[(4-chlorophenyl)amino](hydroxy-amino)methylene]benzenesulfonamide]: the “Cell Titer-Aqueous, HCT116 6 pt” value with HCT116 cells [7] is on record as “+”. Also, the “Cell Titer-Aqueous, HELA 6 pt” value with HeLa cells [1] is “+”. For the same compound, the “PAD Assay, A549 6 pt” value in the experiment on A549 cells [2] is on record as “+”. For the same compound, the “PAD Assay, HELA 6 pt” value with HeLa cells [4] is listed as “+”. The “Cell Titer-Aqueous, A549 6 pt” value in the experiment with A549 cells [5] was “+”. Further, the “MDM2-P53 Flag 8 pt” value on MDM2 / p53 substrate is recorded as “+”. On E3 MDM2, the “MDM2-Auto Flag 8 pt” value is listed as “+”. Besides, the “APC Flag 8 pt” value in experiment [6] is recorded as “+”.

The record behind these values is patent US7915293B2, “Ubiquitin ligase inhibitors” (Rigel Pharmaceuticals, Inc., priority 2003, dated 2011).
